What was measured:
[1] = Drug metabolism in human liver microsomes at 1 uM after 15 mins in presence of NADPH by HPLC-MS/MS analysis; type: ADME, microsome; conditions: read-out: Drug metabolism
HepG2 = experiment: Cytotoxicity against human HepG2 cells assessed as effect on cell health indicators after 72 hrs by automated fluorescence microscopy based high content screening based assay; type: ADME; conditions: hepg2, 72 h
hERG (KCNH2) = hERG (KCNH2) (Homo sapiens, UniProt Q12809); experiment: Inhibition of human ERG expressed in HEK293 cells assessed as reduction in outward potassium current at 3 uM at holding potential was -80 mV after 5 mins by patch clamp assay; type: cell-based; conditions: HEK293 cells that express hERG
[2] = Drug metabolism in mouse liver microsomes at 1 uM after 15 mins in presence of NADPH by HPLC-MS/MS analysis; type: ADME, microsome; conditions: read-out: Drug metabolism
[3] = Ratio of total drug level in brain to plasma of in CD1 Swiss specific pathogen free mouse at 10 mg/kg, po after 4 hrs; type: ADME, organism-based
[4] = Ratio of total unbound drug level in brain to plasma of in CD1 Swiss specific pathogen free mouse at 10 mg/kg, po after 4 hrs; type: ADME, organism-based; conditions: read-out: K(p,uu,brain)
Mus musculus [5] = experiment: Antialzheimer activity in CD1 Swiss specific pathogen free mouse assessed as reduction in amyloid beta (1 to 40) levels at 10 mg/kg, po measured after 1 hr post dose by ELISA; type: functional; design: scale not given: the % may be the effect or the level left
Mus musculus [6] = experiment: Antialzheimer activity in CD1 Swiss specific pathogen free mouse assessed as reduction in amyloid beta (1 to 40) levels at 10 mg/kg, po measured after 2 hrs post dose by ELISA; type: functional; design: scale not given: the % may be the effect or the level left
[7] = target: Voltage-gated inwardly rectifying potassium channel KCNH2 (Homo sapiens, UniProt Q12809); experiment: Inhibition of human ERG expressed in HEK293 cell membranes by radioligand binding assay
Beta-secretase 1 [8] = target: T1, Beta-secretase 1 (Homo sapiens, UniProt P56817); experiment: Inhibition of BACE1 in human SKNBE2 cells transfected with APP695 protein assessed as reduction in amyloid beta (1 to 42) levels after 18 hrs by sandwich alphalisa assay; type: cell-based
Beta-secretase 1 [9] = target: T1, Beta-secretase 1; experiment: Inhibition of BACE1 (1 to 454 residues) (unknown origin) using APP derived polypeptide harboring Lys-Met/Asn-Leu mutation as substrate by FRET assay
TK6 [10] = experiment: Genotoxicity in human TK6 cells at 500 ug/ml after 24 hrs in presence of rat liver S9 fraction by micronucleus assay; type: toxicity, cell-based; conditions: s9, 24 h
TK6 [11] = experiment: Genotoxicity in human TK6 cells up to […] after 24 hrs in absence of rat liver S9 fraction by micronucleus assay; type: toxicity, cell-based; conditions: tk6, 24 h
Mus musculus [12] = experiment: Antialzheimer activity in CD1 Swiss specific pathogen free mouse assessed as reduction in amyloid beta (1 to 40) levels at 10 mg/kg, po measured after 4 hrs post dose by ELISA; type: functional; design: scale not given: the % may be the effect or the level left
[13] = Fraction unbound in mouse plasma at 5 uM after 4.5 hrs by HPLC-MS/MS method based rapid equilibrium dialysis; type: ADME, cell-free
[14] = Fraction unbound in rat brain at 5 uM after 5 hrs by HPLC-MS/MS method based rapid equilibrium dialysis; type: ADME, tissue-based
[15] = Dissociation constant, pKa of the compound at 25 degC by potentiometric titration assay; type: physicochemical
[16] = tested on: MDR1 (P-gp) (Homo sapiens); experiment: Apparent permeability across apical to basolateral side in pig LLC cells transfected with human MDR1 at 5 uM in absence of elacridar by LC-MS/MS analysis; conditions: LLC-PK1
[17] = Drug uptake in mouse brain at 10 mg/kg, po measured at 2 to 4 hrs; type: ADME, organism-based; conditions: in vivo
[18] = Plasma concentration in mouse at 10 mg/kg, po after 4 hrs; type: ADME, organism-based
[19] = Drug metabolism in mouse liver hepatocytes at 1 uM after 60 mins in presence of NADPH by HPLC-MS/MS analysis; type: ADME, cell-based, Hepatocyte; conditions: read-out: Drug metabolism
[20] = Drug uptake in mouse brain at 30 mg/kg, po measured at 2 to 4 hrs; type: ADME, organism-based; conditions: in vivo
Canis familiaris = experiment: Antialzheimer activity in po dosed Beagle dog assessed as reduction in amyloid beta (1 to 40) levels measured after 1 hr post dose by ELISA; type: functional, organism-based, Canis lupus familiaris
[21] = Cmax in anesthetized guinea pig; type: ADME, organism-based, Cavia porcellus; conditions: in vivo
Cavia porcellus = experiment: Cardiotoxicity in anesthetized guinea pigs assessed as drug level causing QTcB prolongation dosed up to 10 mg/kg, iv administered over a period of 5 min at 15 min interval by ECG analysis; type: toxicity, organism-based; conditions: guinea pig, in vivo

hERG (KCNH2), sequence (Q12809 whole entry): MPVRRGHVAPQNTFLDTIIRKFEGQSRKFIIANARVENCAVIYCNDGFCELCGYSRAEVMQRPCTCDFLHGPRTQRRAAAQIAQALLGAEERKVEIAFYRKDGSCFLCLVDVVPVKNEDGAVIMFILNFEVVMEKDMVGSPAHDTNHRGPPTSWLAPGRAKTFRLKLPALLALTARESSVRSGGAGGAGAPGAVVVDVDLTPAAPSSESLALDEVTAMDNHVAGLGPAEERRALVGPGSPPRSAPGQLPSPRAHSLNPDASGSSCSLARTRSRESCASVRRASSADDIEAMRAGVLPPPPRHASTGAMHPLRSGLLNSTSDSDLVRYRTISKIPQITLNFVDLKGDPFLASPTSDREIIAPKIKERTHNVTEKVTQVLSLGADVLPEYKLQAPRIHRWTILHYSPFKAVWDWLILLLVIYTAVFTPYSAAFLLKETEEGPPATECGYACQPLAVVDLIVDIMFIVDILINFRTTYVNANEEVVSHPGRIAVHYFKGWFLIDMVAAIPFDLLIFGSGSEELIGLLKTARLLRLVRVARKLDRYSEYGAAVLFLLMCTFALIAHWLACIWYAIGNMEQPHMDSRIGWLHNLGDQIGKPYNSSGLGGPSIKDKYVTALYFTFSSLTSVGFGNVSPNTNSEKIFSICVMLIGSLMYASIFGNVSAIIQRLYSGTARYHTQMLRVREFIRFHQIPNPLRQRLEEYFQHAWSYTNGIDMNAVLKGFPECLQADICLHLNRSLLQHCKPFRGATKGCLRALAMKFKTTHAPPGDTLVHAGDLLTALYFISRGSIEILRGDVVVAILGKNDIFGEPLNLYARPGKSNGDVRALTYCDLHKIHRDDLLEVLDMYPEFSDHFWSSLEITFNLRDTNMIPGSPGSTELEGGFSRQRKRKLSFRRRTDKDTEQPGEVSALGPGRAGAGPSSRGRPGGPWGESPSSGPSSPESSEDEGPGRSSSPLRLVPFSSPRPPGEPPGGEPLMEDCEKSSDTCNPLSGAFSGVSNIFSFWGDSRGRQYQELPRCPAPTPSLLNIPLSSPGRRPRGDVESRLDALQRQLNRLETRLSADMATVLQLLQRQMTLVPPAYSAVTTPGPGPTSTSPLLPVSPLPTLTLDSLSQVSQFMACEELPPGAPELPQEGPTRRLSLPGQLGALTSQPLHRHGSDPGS
Voltage-gated inwardly rectifying potassium channel KCNH2, sequence (Q12809 whole entry): as above
T1 sequence (P56817 whole entry, the tested form may be a part): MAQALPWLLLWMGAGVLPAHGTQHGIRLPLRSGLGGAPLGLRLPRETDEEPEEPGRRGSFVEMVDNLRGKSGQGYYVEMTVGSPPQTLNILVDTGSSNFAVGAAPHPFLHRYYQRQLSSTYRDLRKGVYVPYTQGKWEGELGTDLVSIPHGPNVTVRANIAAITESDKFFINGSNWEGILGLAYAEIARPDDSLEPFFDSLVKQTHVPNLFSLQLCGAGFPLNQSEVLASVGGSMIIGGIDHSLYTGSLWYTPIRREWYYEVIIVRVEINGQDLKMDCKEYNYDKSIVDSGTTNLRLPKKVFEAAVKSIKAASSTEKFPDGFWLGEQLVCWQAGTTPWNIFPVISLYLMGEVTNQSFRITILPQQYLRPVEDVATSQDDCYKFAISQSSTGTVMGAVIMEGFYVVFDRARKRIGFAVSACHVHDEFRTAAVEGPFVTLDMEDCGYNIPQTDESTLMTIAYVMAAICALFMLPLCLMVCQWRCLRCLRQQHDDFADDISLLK

SMILES | metabolised at 0.25 h, 1 µM [1] [%] | metabolised at 0.25 h, 1 µM [2] [%] | IC50 (Beta-secretase 1 [8]) [nM] | IC50 (Beta-secretase 1 [9]) [nM] | inhibition at 5 min, 3 µM (hERG (KCNH2)) [%] | IC50 [7] [nM] | further results
C[C@]1(c2cc(NC(=O)c3ccc(Cl)cn3)ccc2F)N=C(N)CO[C@H]1C(F)(F)F | 0 | 48 | – | – | 27 | – | MTC (HepG2): 13.6 µM
COc1cnc(C(=O)Nc2ccc(F)c([C@@]3(C)N=C(N)CO[C@@H]3F)c2)cn1 | – | – | – | – | – | > 10000 | Kp at 4 h [3]: 0.6; Kp uu at 4 h [4]: 0.09; Activity (Mus musculus [5]): 39%; Activity (Mus musculus [6]): 65%
C[C@]1(c2cc(NC(=O)c3cnc(NC4CC4)cn3)ccc2F)N=C(N)CO[C@H]1C(F)(F)F | – | – | 603 | 3020 | – | – | –
C[C@]1(c2cc(NC(=O)c3ncc(C#N)cc3Cl)ccc2F)N=C(N)CO[C@H]1C(F)(F)F | 38 | 38 | – | – | 13 | – | –
C[C@]1(c2cc(N)ccc2F)N=C(N)CO[C@H]1C(F)(F)F | – | – | – | – | – | – | Activity (TK6 [10]): Non-Toxic; Activity (TK6 [11]): Non-Toxic
C[C@]1(c2cc(NC(=O)c3cnc(NCC(F)(F)F)cn3)ccc2F)N=C(N)CO[C@H]1C(F)(F)F | – | – | 4500 | > 10000 | – | – | –
COc1cnc(C(=O)Nc2ccc(F)c([C@@]3(C)N=C(N)CO[C@H]3C(F)(F)F)c2)cn1 | 2 | 19 | – | – | 19 | > 10000 | Kp at 4 h [3]: 1.81; Activity (Mus musculus [12]): 29%; fraction unbound at 4.5 h, 5 µM [13]: 0.155; fraction unbound at 5 h, 5 µM [14]: 0.02; Kp uu at 4 h [4]: 0.23; Activity (Mus musculus [5]): 23%; MTC (HepG2): 15.6 µM; pKa [15]: 7.8; Papp A→B at 5 µM [16]: 13.7 ×10⁻⁶ cm/s; Activity (Mus musculus [6]): 37%
C[C@]1(c2cc(NC(=O)c3ncc(C#N)cc3Cl)ccc2F)N=C(N)CO[C@@H]1F | 1 | 0 | 15.5 | 10.7 | 19 | > 10000 | Drug uptake [17]: Not Active; concentration at 4 h [18]: 38 ng/mL; metabolised at 1 h, 1 µM [19]: 55%; Papp A→B at 5 µM [16]: 3.06 ×10⁻⁶ cm/s
C[C@]1(c2cc(NC(=O)c3ncc(C#N)cc3F)ccc2F)N=C(N)CO[C@@H]1F | 11 | 19 | 12.2 | 18.4 | 24 | > 10000 | Drug uptake [20]: Not Active; Papp A→B at 5 µM [16]: 1.05 ×10⁻⁶ cm/s
C[C@@]1(c2cc(N/C=C/c3ccc(C#N)cn3)ccc2F)COCC(N)=N1 | – | – | 251 | 2340 | – | – | –
C[C@]1(c2cc(-c3cncnc3)ccc2F)N=C(N)CO[C@H]1C(F)(F)F (racemic) | 7 | 51 | 631 | 1860 | – | – | –
C[C@]1(c2cc(NC(=O)c3ccc(C#N)cn3)ccc2F)N=C(N)CO[C@@H]1F | – | – | – | – | – | 8000 | fEC50 (Canis familiaris): 0.023 µM; Cmax [21]: 475 ng/mL; LOAEL (Cavia porcellus): 475 ng/mL; fLOAEL (Cavia porcellus): 0.55 µM; fNOAEL (Cavia porcellus): 0.2 µM; metabolised at 1 h, 1 µM [19]: 0%

More lines, main results first:

metabolised at 0.25 h, 1 µM [1] [%] | metabolised at 0.25 h, 1 µM [2] [%] | IC50 (Beta-secretase 1 [8]) [nM] | IC50 (Beta-secretase 1 [9]) [nM] | SMILES | inhibition at 5 min, 3 µM (hERG (KCNH2)) [%] | IC50 [7] [nM] | further results
56 | 59 | 12.5 | 40.7 | COCCOc1cnc(C(=O)Nc2ccc(F)c([C@@]3(C)N=C(N)CO[C@H]3C(F)(F)F)c2)cn1 | – | – | –
– | – | 49 | 30.2 | C[C@]1(c2cc(NC(=O)c3cnc(OC(F)(F)C(F)(F)F)cn3)ccc2F)N=C(N)CO[C@H]1C(F)(F)F | – | – | –
– | – | 35.1 | 151 | COc1cnc(C(=O)Nc2ccc(F)c([C@@]3(C)N=C(N)COC3=C(F)F)c2)cn1 | – | > 10000 | Kp at 4 h [3]: 0.97; Activity (Mus musculus [12]): 7%; fraction unbound at 4.5 h, 5 µM [13]: 0.146; fraction unbound at 5 h, 5 µM [14]: 0.017; Kp uu at 4 h [4]: 0.11; pKa [15]: 7.9; Papp A→B at 5 µM [16]: 8.63 ×10⁻⁶ cm/s; Activity (Mus musculus [6]): 6%
– | – | 20.9 | 24.5 | C[C@]1(c2cc(NC(=O)c3cnc(OCC(F)(F)F)cn3)ccc2F)N=C(N)CO[C@H]1C(F)(F)F | – | – | –
– | – | 115 | 457 | C[C@]1(c2cc(NC(=O)c3cnc(N4CCC4)cn3)ccc2F)N=C(N)CO[C@H]1C(F)(F)F | – | – | –
– | – | 4.9 | 11.4 | COc1cnc(C(=O)Nc2ccc(F)c([C@@]3(C)N=C(N)CO[C@H]3C(F)F)c2)cn1 | 24 | > 10000 | Kp at 4 h [3]: 0.4; Activity (Mus musculus [12]): 40%; fraction unbound at 4.5 h, 5 µM [13]: 0.279; fraction unbound at 5 h, 5 µM [14]: 0.047; Kp uu at 4 h [4]: 0.07; Activity (Mus musculus [5]): 11%; pKa [15]: 8.4; Papp A→B at 5 µM [16]: 4.8 ×10⁻⁶ cm/s; Activity (Mus musculus [6]): 38%
